Test results reported in patent US6875759B1, “Substituted guanidines and the use thereof” (Kadmus Pharmaceuticals, priority 1999, dated 2005).
Read-outs that look alike come from different tables or passages of the source.

Tests used:
[1] = test system: breast cancer cell line HS578T; test: In vitro cytotoxicity, MTS assay, breast cancer cells; format: cell-based, human; settings: 7 days exposure, dose causing death to 50% of cells, read-out: Cell Survival ED 50 Breast
Method: (§1) In these experiments, cells were seeded at 400 cells per well 24 hours prior to addition of the test compound. Cells were grown at 37° C. in a humidified atmosphere of 95% air, 5% CO2 for 7 days with daily media changes. Cytotoxicity was assessed using the CellTiter 96 Aqueous Proliferation Assay (Promega, Madison, Wis.).

[2] = test system: hormone-independent prostate cancer cell line DU145; test: In vitro cytotoxicity, MTS (CellTiter 96 Aqueous Proliferation Assay), prostate cancer cells; format: cell-based, human; settings: 7 days exposure, MTS, dose causing death to 50% of cells, read-out: Cell Survival ED 50 Prostate
Method: FIG. 1 is a graph which compares the effects of the compound of Example 8 on normal human endothelial cells (AH-9) and human prostate cancer cells (DU145). Cells were exposed to the compound for seven days at the concentrations indicated. Cytotoxicity was assessed using the MTS assay.
as §1
In a separate experiment (FIG. 1), normal human endothelial cells (AH-9) and human prostate cancer cells (DU145) were exposed to increasing concentrations of the compound of Example 8 for seven days.

[3] = test system: pancreas cancer cell line HS766T; test: In vitro cytotoxicity, MTS assay, pancreas cancer cells; format: cell-based, human; settings: Homo sapiens, 168 h, 7 days exposure, dose causing death to 50% of cells, read-out: Cell Survival ED 50 Pancreas
Method: as §1

[4] = Mouse formalin test pain model, late phase; format: in vivo
Method: The formalin test was conducted using standard procedures (Hunskaar et al., J. Neurosci. Meth. 14:69-76 (1985). Mice (male CF-1, 20-25 g) were placed in Plexiglass jars for at least 1 hr to accommodate to the environment
The animals received either test drug at 5-50 mg/kg p.o. or the appropriate volume of vehicle (normal saline). Thirty minutes after p.o. dosing mice were injected with formalin (20 μl of 2.5% formaldehyde solution in saline) into the dorsal surface of the right hind paw.
All experiments were done in a blinded manner. The late phase of the formalin response was measured as licking/biting from 10-50 minutes after formalin injection. Differences between groups were analyzed by one-way analysis of variance (ANOVA), A P value ≦0.05 was considered significant. Reduction in the time spent licking/biting in the late phase of the formalin response is considered an indication of a reduction in chronic pain.

| SMILES | EC50 ([1]; Homo sapiens, Hs-578T, 168 h) | EC50 ([2]; Homo sapiens, DU-145, 168 h) | EC50 [3] | also measured |
| --- | --- | --- | --- | --- |
| Cc1ccc(N(c2ccc(C)cc2)N2CCC(C#N)(c3ccccc3)CC2)cc1 [Example 14, 4-Cyano-1-[(N,N′-di-p-tolyl)amino]-4-phenylpiperidine] | 4600 nM | 10800 nM |  |  |
| Cc1ccc(NC(=N)N(CCCCN(C(=N)Nc2ccc(C)cc2)c2ccc(C)cc2)c2ccc(C)cc2)cc1 [Example 5, 1,4-Di-[(N,N′-di-p-tolyl)guanidinyl]butane] | 300 nM | 700 nM |  |  |
| COc1cc([C@@H]2c3cc4c(cc3[C@@H](O[C@@H]3O[C@@H]5CO[C@@H](C)O[C@H]5[C@H](O)[C@H]3O)[C@H]3COC(=O)[C@H]23)OCO4)cc(OC)c1O [Etoposide, etoposide, reference compound] | 400 nM | 600 nM | 2000 nM |  |
| Cc1ccc(NC(=N)N(CCCCN)c2ccc(C)cc2)cc1 [Example 4, 1-Amino-4-[(N,N′-di-p-tolyl)guanidinyl]butane] | 1700 nM | 2500 nM | 200 nM |  |
| Cc1ccc(NC(=N)N(CCN(C(=N)Nc2ccc(C)cc2)c2ccc(C)cc2)c2ccc(C)cc2)cc1 [Example 21, 1,2-Di-[(N,N′-di-p-tolyl)guanidinyl]ethane] |  |  |  | late phase pain versus control vehicle (post-hoc Newman-Kuels test) ([4]; 30 mg/kg orally): significant at P<0.05; effect on general behavior of the animals ([4]; at the doses effective in the formalin test, p.o.): did not affect the general behavior; time spent licking, late phase of formalin response (in words) ([4]; oral administration, 5-50 mg/kg, male CF-1 mice): dose-dependent reduction in the time spent licking |
| C[C@]12CC[C@@H]3c4ccc(OC(=O)N(CCCl)CCCl)cc4CC[C@H]3[C@@H]1CC[C@@H]2O [Estramustine, reference compound] |  | 11000 nM |  |  |
| COc1cccc2c1C(=O)c1c(O)c3c(c(O)c1C2=O)C[C@@](O)(C(=O)CO)C[C@@H]3O[C@H]1C[C@H](N)[C@H](O)[C@H](C)O1 [Doxorubicin, doxorubicin, reference compound] | 2000 nM | 7000 nM | 300 nM |  |
| Cc1ccc(NC(=NCCCOCCCCOCCCN=C(Nc2ccc(C)cc2)Nc2ccc(C)cc2)Nc2ccc(C)cc2)cc1 [Example 15] |  |  |  | EC50 [1]: 900 nM; EC50 [2]: 2500 nM |
| CC[C@]1(O)C[C@@H]2CN(CCc3c([nH]c4ccccc34)[C@@](C(=O)OC)(c3cc4c(cc3OC)N(C)[C@H]3[C@@](O)(C(=O)OC)[C@H](OC(C)=O)[C@]5(CC)C=CCN6CC[C@]43[C@@H]65)C2)C1 [Vinblastine, vinblastine, reference compound] | 1200 nM | 4000 nM | 200 nM |  |
| Cc1ccc(NC(=N)N(CCc2c[nH]c3ccccc23)c2ccc(C)cc2)cc1 [Example 9, 1-[(N,N′-di-p-tolyl)guanidinyl]-2-(3-indolyl)ethane] | 4200 nM | 5100 nM | 500 nM |  |
| Cc1ccc(N=C(Nc2ccc(C)cc2)N2CCOCCOCCN(C(=Nc3ccc(C)cc3)Nc3ccc(C)cc3)CCOCCOCC2)cc1 [Example 16, 7,16-Di-[(N,N′-Di-p-tolyl)amidino]-1,4,10,13-tetraoxa-7,16-diazacyclooctadecane] | 600 nM | 1000 nM |  |  |
